# pIC50: −log10 of the molar value. Read-outs that look alike come from different tables or passages of the source.
# Assays:
# [1] = molecular target: T1, full-length beta-Catenin (Uniprot ID P35222) (Homo sapiens, UniProt P35222); assay: Fluorescence polarization IC50 (beta-catenin / 5FAM-TCF4 10-53 competition); type: binding
# T1 construct: 10 nM full-length beta-Catenin (Uniprot ID P35222)
# T1 sequence (P35222 1-781): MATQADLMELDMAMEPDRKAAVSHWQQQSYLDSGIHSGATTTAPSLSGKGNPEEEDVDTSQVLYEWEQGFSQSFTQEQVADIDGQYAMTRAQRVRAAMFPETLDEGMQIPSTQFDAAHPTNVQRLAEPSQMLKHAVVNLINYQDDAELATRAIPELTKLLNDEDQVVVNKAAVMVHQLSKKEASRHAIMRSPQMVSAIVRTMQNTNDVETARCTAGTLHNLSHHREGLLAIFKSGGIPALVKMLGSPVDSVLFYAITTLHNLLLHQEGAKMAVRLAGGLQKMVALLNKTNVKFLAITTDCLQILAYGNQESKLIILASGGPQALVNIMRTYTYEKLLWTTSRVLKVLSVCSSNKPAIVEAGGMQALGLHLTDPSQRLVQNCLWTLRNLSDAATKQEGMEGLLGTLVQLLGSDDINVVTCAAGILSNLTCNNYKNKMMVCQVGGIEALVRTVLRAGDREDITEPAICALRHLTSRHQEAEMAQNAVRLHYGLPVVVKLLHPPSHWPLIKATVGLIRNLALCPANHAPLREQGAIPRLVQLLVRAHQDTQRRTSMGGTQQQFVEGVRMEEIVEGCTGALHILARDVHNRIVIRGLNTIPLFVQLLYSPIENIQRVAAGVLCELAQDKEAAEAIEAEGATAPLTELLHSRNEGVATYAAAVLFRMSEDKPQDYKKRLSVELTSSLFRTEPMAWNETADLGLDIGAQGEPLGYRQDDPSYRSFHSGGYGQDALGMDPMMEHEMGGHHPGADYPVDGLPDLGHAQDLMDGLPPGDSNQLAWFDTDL
# [2] = CHI Log D procedure; type: physicochemical; settings: for CHI Log D: pH 7.4; for chromatographic logD: pH 7.4, CHI Log D
# [3] = Solubility in PBS; type: physicochemical
# Method in brief: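 Solubility is derived from HPLC peak areas: the ratio of the PBS supernatant peak to a 50 μM DMSO peptide peak, times 50 uM.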
# [4] = fluorescence polarization, read-out: beta-Catenin FP IC50
"pIC50 [1, 4]",pIC50 ([1]; read-out: FP EC50),CHI Log D [2],Solubility [3] [µM],chromatographic logD [2],Solubility ([3]; Solubility (uM)) [µM],solubility at 15 min ([3]; Solubility (uM)) [µM],SMILES
6.77,6.77,1.968,50,–,–,–,"CC(=O)N1CCC[C@]12CC=CCCCC1(CCCC=CCCCCCC[C@@](C)(C(=O)N[C@@H](Cc3ccccc3)C(=O)N[C@@H](Cc3csc4ccccc34)C(=O)N[C@@H](CCC(N)=O)C(N)=O)NC(=O)[C@H](CC(N)=O)NC(=O)[C@H](Cc3ccccc3)NC(=O)[C@H](C)NC(=O)[C@H](C)NC(=O)[C@H](CCC(=O)O)NC(=O)[C@H](CC(=O)O)NC1=O)NC(=O)[C@H](C)NC(=O)[C@H](CC(=O)O)NC2=O (stereo partly drawn) [I-424, Ac-PL3-Asp-Ala-B5-Asp-Glu-Ala-Ala-Phe-Asn-S8-Phe-BztA-Gln-NH2]"
7.30,7.30,2.01,45,–,–,–,"CC(=O)N1CCC[C@]12CC=CCCCC1(CCCC=CCCCCCC[C@@](C)(C(=O)N[C@@H](Cc3ccccc3)C(=O)N[C@@H](Cc3csc4ccccc34)C(=O)N[C@@H](CCC(N)=O)C(N)=O)NC(=O)[C@H](CC(N)=O)NC(=O)[C@H](Cc3ccccc3)NC(=O)[C@H](C)NC(=O)[C@H](C)NC(=O)[C@H](CCC(=O)O)NC(=O)[C@H](CC(=O)O)NC1=O)NC(=O)[C@H](C)NC(=O)[C@H](CC(=O)O)NC2=O (stereo partly drawn) [I-425, Ac-PL3-Asp-Ala-B5-Asp-Glu-Ala-Ala-Phe-Asn-S8-Phe-BztA-Gln-NH2]"
7.17,–,–,–,2.05,20,–,"CC(=O)N1CCC[C@]12CC=CCCCC1(CCCC=CCCCCCC[C@@](C)(C(=O)N[C@@H](Cc3ccccc3F)C(=O)N[C@@H](Cc3csc4ccccc34)C(=O)N[C@@H](CCC(N)=O)C(N)=O)NC(=O)[C@H](CC(N)=O)NC(=O)[C@H](Cc3ccccc3)NC(=O)[C@H](C)NC(=O)[C@H](C)NC(=O)[C@H](CCC(=O)O)NC(=O)[C@H](CC(=O)O)NC1=O)NC(=O)[C@H](C)NC(=O)[C@H](CC(=O)O)NC2=O (stereo partly drawn) [I-434, Ac-PL3-Asp-Ala-B5-Asp-Glu-Ala-Ala-Phe-Asn-S8-2FF-BztA-Gln-NH2]"
7.15,–,–,50,2.13,–,–,"CC(=O)N1CCC[C@]12CC=CCCCC1(CCCC=CCCCCCC[C@@](C)(C(=O)N[C@@H](Cc3ccccc3Cl)C(=O)N[C@@H](Cc3csc4ccccc34)C(=O)N[C@@H](CCC(N)=O)C(N)=O)NC(=O)[C@H](CC(N)=O)NC(=O)[C@H](Cc3ccccc3)NC(=O)[C@H](C)NC(=O)[C@H](C)NC(=O)[C@H](CCC(=O)O)NC(=O)[C@H](CC(=O)O)NC1=O)NC(=O)[C@H](C)NC(=O)[C@H](CC(=O)O)NC2=O (stereo partly drawn) [I-435, Ac-PL3-Asp-Ala-B5-Asp-Glu-Ala-Ala-Phe-Asn-S8-2C1F-BztA-Gln-NH2]"
7.25,–,–,50,2.16,–,–,"CC(=O)N1CCC[C@]12CC=CCCCC1(CCCC=CCCCCCC[C@@](C)(C(=O)N[C@@H](Cc3ccccc3Br)C(=O)N[C@@H](Cc3csc4ccccc34)C(=O)N[C@@H](CCC(N)=O)C(N)=O)NC(=O)[C@H](CC(N)=O)NC(=O)[C@H](Cc3ccccc3)NC(=O)[C@H](C)NC(=O)[C@H](C)NC(=O)[C@H](CCC(=O)O)NC(=O)[C@H](CC(=O)O)NC1=O)NC(=O)[C@H](C)NC(=O)[C@H](CC(=O)O)NC2=O (stereo partly drawn) [I-436, Ac-PL3-Asp-Ala-B5-Asp-Glu-Ala-Ala-Phe-Asn-S8-2BrF-BztA-Gln-NH2]"
5.30,–,–,–,1.39,–,46,"CC(=O)N1CCC[C@]12CC=CCCCC1(CCCC=CCCCCCC[C@@](C)(C(=O)NC(Cc3cncn3C)C(=O)N[C@@H](Cc3csc4ccccc34)C(=O)N[C@@H](CCC(N)=O)C(N)=O)NC(=O)[C@H](CC(N)=O)NC(=O)[C@H](Cc3ccccc3)NC(=O)[C@H](C)NC(=O)[C@H](C)NC(=O)[C@H](CCC(=O)O)NC(=O)[C@H](CC(=O)O)NC1=O)NC(=O)[C@H](C)NC(=O)[C@H](CC(=O)O)NC2=O (stereo partly drawn) [I-438, Ac-PL3-Asp-Ala-B5-Asp-Glu-Ala-Ala-Phe-Asn-S8-3meH-BztA-Gln-NH2]"

# More lines, now with the values behind:
SMILES,"pIC50 [1, 4]",pIC50 ([1]; read-out: FP EC50),CHI Log D [2],Solubility [3] [µM],chromatographic logD [2],Solubility ([3]; Solubility (uM)) [µM],solubility at 15 min ([3]; Solubility (uM)) [µM]
"CC(=O)N1CCC[C@]12CC=CCCCC1(CCCC=CCCCCCC[C@@](C)(C(=O)N[C@@H](Cc3ccsc3)C(=O)N[C@@H](Cc3csc4ccccc34)C(=O)N[C@@H](CCC(N)=O)C(N)=O)NC(=O)[C@H](CCC(N)=O)NC(=O)[C@H](Cc3ccccc3)NC(=O)[C@H](C)NC(=O)[C@H](C)NC(=O)[C@H](CCC(=O)O)NC(=O)[C@H](CC(=O)O)NC1=O)NC(=O)[C@H](C)NC(=O)[C@H](CC(=O)O)NC2=O (stereo partly drawn) [I-426, Ac-PL3-Asp-Ala-B5-Asp-Glu-Ala-Ala-Phe-Gln-S8-3Thi-BztA-Gln-NH2]",6.96,6.96,1.959,33,–,–,–
"CC(=O)N1CCC[C@]12CC=CCCCC1(CCCC=CCCCCCC[C@@](C)(C(=O)N[C@@H](Cc3ccsc3)C(=O)N[C@@H](Cc3csc4ccccc34)C(=O)N[C@@H](CCC(N)=O)C(N)=O)NC(=O)[C@H](CCC(N)=O)NC(=O)[C@H](Cc3ccccc3)NC(=O)[C@H](C)NC(=O)[C@H](C)NC(=O)[C@H](CCC(=O)O)NC(=O)[C@H](CC(=O)O)NC1=O)NC(=O)[C@H](C)NC(=O)[C@H](CC(=O)O)NC2=O (stereo partly drawn) [I-427, Ac-PL3-Asp-Ala-B5-Asp-Glu-Ala-Ala-Phe-Gln-S8-3Thi-BztA-Gln-NH2]",7.41,7.41,1.985,50,–,–,–
"CC(=O)N1CCC[C@]12CC=CCCCC1(CCCC=CCCCCCC[C@@](C)(C(=O)N[C@@H](Cc3cccs3)C(=O)N[C@@H](Cc3csc4ccccc34)C(=O)N[C@@H](CCC(N)=O)C(N)=O)NC(=O)[C@H](CCC(N)=O)NC(=O)[C@H](Cc3ccccc3)NC(=O)[C@H](C)NC(=O)[C@H](C)NC(=O)[C@H](CCC(=O)O)NC(=O)[C@H](CC(=O)O)NC1=O)NC(=O)[C@H](C)NC(=O)[C@H](CC(=O)O)NC2=O (stereo partly drawn) [I-428, Ac-PL3-Asp-Ala-B5-Asp-Glu-Ala-Ala-Phe-Gln-S8-2Thi-BztA-Gln-NH2]",7.22,–,–,–,1.99,14,–
"CC(=O)N1CCC[C@]12CC=CCCCC1(CCCC=CCCCCCC[C@@](C)(C(=O)N[C@@H](Cc3cccc(F)c3)C(=O)N[C@@H](Cc3csc4ccccc34)C(=O)N[C@@H](CCC(N)=O)C(N)=O)NC(=O)[C@H](CCC(N)=O)NC(=O)[C@H](Cc3ccsc3)NC(=O)[C@H](C)NC(=O)[C@H](C)NC(=O)[C@H](CCC(=O)O)NC(=O)[C@H](CC(=O)O)NC1=O)NC(=O)[C@H](C)NC(=O)[C@H](CC(=O)O)NC2=O (stereo partly drawn) [I-429, Ac-PL3-Asp-Ala-B5-Asp-Glu-Ala-Ala-3Thi-Gln-S8-3FF-BztA-Gln-NH2]",6.84,–,–,50,2.07,–,–
"CC(=O)N1CCC[C@]12CC=CCCCC1(CCCC=CCCCCCC[C@@](C)(C(=O)N[C@@H](Cc3cccc(F)c3)C(=O)N[C@@H](Cc3csc4ccccc34)C(N)=O)NC(=O)[C@H](CCC(N)=O)NC(=O)[C@H](Cc3ccsc3)NC(=O)[C@H](C)NC(=O)[C@H](C)NC(=O)[C@H](CCC(=O)O)NC(=O)[C@H](CC(=O)O)NC1=O)NC(=O)[C@H](C)NC(=O)[C@H](CC(=O)O)NC2=O (stereo partly drawn) [I-431, Ac-PL3-Asp-Ala-B5-Asp-Glu-Ala-Ala-3Thi-Gln-S8-3FF-BztA-NH2]",5.88,–,–,–,2.23,33,–
"CC(=O)N1CCC[C@]12CC=CCCCC1(CCCC=CCCCCCC[C@@](C)(C(=O)N[C@@H](Cc3ccccc3)C(=O)N[C@@H](Cc3csc4ccccc34)C(N)=O)NC(=O)[C@H](CC(N)=O)NC(=O)[C@H](Cc3ccccc3)NC(=O)[C@H](C)NC(=O)[C@H](C)NC(=O)[C@H](CCC(=O)O)NC(=O)[C@H](CC(=O)O)NC1=O)NC(=O)[C@H](C)NC(=O)[C@H](CC(=O)O)NC2=O (stereo partly drawn) [I-432, Ac-PL3-Asp-Ala-B5-Asp-Glu-Ala-Ala-Phe-Asn-S8-Phe-BztA-NH2]",6.84,–,–,–,2.23,23,–
"COC[C@@H]1NC(=O)[C@H](Cc2ccccc2)NC(=O)[C@H](C)NC(=O)[C@H](C)NC(=O)[C@H](CCC(=O)O)NC(=O)[C@H](CC(=O)O)NC(=O)C2(CCCC=CCCCCCC[C@@](C)(C(=O)N[C@@H](Cc3ccccc3)C(=O)N[C@@H](Cc3csc4ccccc34)C(=O)N[C@@H](CCC(N)=O)C(N)=O)NC1=O)CCCC=CC[C@]1(CCCN1C(C)=O)C(=O)N[C@@H](CC(=O)O)C(=O)N[C@@H](C)C(=O)N2 (stereo partly drawn) [I-433, Ac-PL3-Asp-Ala-B5-Asp-Glu-Ala-Ala-Phe-S(OMe)-S8-Phe-BztA-Gln-NH2]",6.87,–,–,–,2.08,39,–
